Consider 1 molecule from patent publication US20070111208A1, “Determination of free fractions” (Bayer HealthCare AG, priority 2003, published 2007).

The subject of data set [1] is rat plasma. Description: Protein binding via distribution between diluted plasma and Transil (rat plasma). Conditions: Method A (Transil); Wistar rat, male; about 200 μg/l; LC/MS-MS or HPLC. The format is in vitro ADME. The protocol:
Protein binding of all drugs was determined via partitioning between diluted plasma and Transil® in vitro. All incubations were performed in glass tubes. An isotonic potassium phosphate buffer, pH 7.4 (Dulbeccos PBS, Sigma D8534) was used for diluting the plasma.
The total incubation volume was generally between 0.3 and 1 ml. The diluted plasma (150 to 980 μl) of the test species was pipetted into glass tubes and Transil® (10 to 300 μl) was added. The test substance dissolved in a small volume of a suitable solvent was added to the Transil®-plasma suspensions.
The degree of the dilution and the Transil®-volume should be chosen with respect to the expected fu value. […]
The radioactivity concentration in the suspension was determined directly after incubation. The radioactivity concentration (or the drug concentration in the case of HPLC or LC/MS-MS analytics) in plasma was determined after centrifugation.
The free fraction in diluted plasma was calculated as the ratio of the partition coefficients for the Transil®/plasma′ (MAplasma) and the Transil®/buffer distribution (MAbuffer).
In a second experiment, the total amount in the Transil®-plasma suspension and the concentration in diluted plasma, Cplasma′, were determined. The partitioning between Transil® and the diluted plasma (the apparent membrane affinity in diluted plasma), MAplasma′, was calculated as: [formula] […]

Data set [2] has as its system rat plasma. The experiment in a line: Erythrocyte plasma partitioning (rat plasma). The format is in vitro ADME. Particulars: Method B (erythrocyte plasma partitioning); Wistar rat, male; about 200 μg/l. The procedure: Ultrafiltration, equilibrium dialysis and the determination of the free fraction of a drug via distribution between erythrocytes and plasma were performed as previously described^8,12.

`O=C(NC[C@H]1CN(c2ccc(N3CCOCC3=O)cc2)C(=O)O1)c1ccc(Cl)s1` [Drug III]: the results for the fu in data set [1] and in data set [2] were 1.62% and 1.49%, respectively.
